Measured values from the supplement of paper PMC6045584.
± gives the standard deviation of the averaged measurements.

Legend:
MK-1775 = compound: C=CCn1c(=O)c2cnc(Nc3ccc(N4CCN(C)CC4)cc3)nc2n1-c1cccc(C(C)(C)O)n1 [MK-1775]; experiment: surviving fraction relative to DMSO-only wells; higher = less growth inhibition; settings: exposure time: 5 days
Summary of the method: (§1)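 A line counted only if its three screens reached replicate Pearson r >0.7 and median Z' >0.3. Tumour cells in log phase were seeded at 250–500 per well in 384-well plates and, after 24 hours, kept in continuous contact with inhibitors at 0.5, 1, 5, 10, 50, 100, 500 and 1000 nM for five days. Surviving fraction was taken from CellTiter-Glo luminescence relative to the median of DMSO-only wells.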

[1] = compound: C[C@@H]1CN(CC(=O)Nc2ccc3c(c2)Cc2cccc(-c4cc(=O)cc(N5CCOCC5)o4)c2S3)C[C@H](C)O1; experiment: as above; settings: exposure time: 5 days
Summary of the method: as §1

SYO1 SYNOVIAL showed a surviving fraction (MK-1775; 0.5 nM) of 1.01 ± 0.014, a surviving fraction (MK-1775; 1 nM) of 0.977 ± 0.053 and a surviving fraction (MK-1775; 5 nM) of 1 ± 0.014. It also gave a surviving fraction (MK-1775; 10 nM) of 0.9618 ± 0.0076, a surviving fraction (MK-1775; 50 nM) of 0.658 ± 0.033 and a surviving fraction (MK-1775; 100 nM) of 0.317 ± 0.076. For the same test system, the surviving fraction (MK-1775; 500 nM) was 0.473 ± 0.11, the surviving fraction (MK-1775; 1000 nM) was 0.0491 ± 0.0039 and the surviving fraction ([1]; 0.5 nM) was 0.997 ± 0.021. For the same test system, the surviving fraction ([1]; 1 nM) was 1 ± 0.029, the surviving fraction ([1]; 5 nM) was 0.987 ± 0.049 and the surviving fraction ([1]; 10 nM) was 1.07 ± 0.019. For the same test system, the surviving fraction ([1]; 50 nM) was 0.993 ± 0.023, the surviving fraction ([1]; 100 nM) was 1.03 ± 0.018 and the surviving fraction ([1]; 500 nM) was 0.894 ± 0.019. It also gave a surviving fraction ([1]; 1000 nM) of 0.781 ± 0.011.

Work on T47D BREAST yielded a surviving fraction (MK-1775; 0.5 nM) of 1.07 ± 0.021, a surviving fraction (MK-1775; 1 nM) of 1.05 ± 0.014 and a surviving fraction (MK-1775; 5 nM) of 1.1 ± 0.044. For the same test system, the surviving fraction (MK-1775; 10 nM) was 1.01 ± 0.015, the surviving fraction (MK-1775; 50 nM) was 1.06 ± 0.065 and the surviving fraction (MK-1775; 100 nM) was 0.979 ± 0.025. For the same test system, the surviving fraction (MK-1775; 500 nM) was 0.453 ± 0.025, the surviving fraction (MK-1775; 1000 nM) was 0.38 ± 0.024 and the surviving fraction ([1]; 0.5 nM) was 1.02 ± 0.018. For the same test system, the surviving fraction ([1]; 1 nM) was 1.01 ± 0.022, the surviving fraction ([1]; 5 nM) was 1.03 ± 0.013 and the surviving fraction ([1]; 10 nM) was 0.9914 ± 0.0016. The surviving fraction ([1]; 50 nM) was 1.06 ± 0.027, the surviving fraction ([1]; 100 nM) was 1.049 ± 0.0087 and the surviving fraction ([1]; 500 nM) was 1.047 ± 0.0069. For the same test system, the surviving fraction ([1]; 1000 nM) was 0.945 ± 0.051.

U2OS BONE showed a surviving fraction (MK-1775; 0.5 nM) of 1.03 ± 0.028, a surviving fraction (MK-1775; 1 nM) of 0.991 ± 0.043 and a surviving fraction (MK-1775; 5 nM) of 1.07 ± 0.032. It also gave a surviving fraction (MK-1775; 10 nM) of 1.07 ± 0.034, a surviving fraction (MK-1775; 50 nM) of 0.922 ± 0.039 and a surviving fraction (MK-1775; 100 nM) of 0.641 ± 0.028. It also gave a surviving fraction (MK-1775; 500 nM) of 0.133 ± 0.002, a surviving fraction (MK-1775; 1000 nM) of 0.0693 ± 0.0045 and a surviving fraction ([1]; 0.5 nM) of 1.06 ± 0.052. The surviving fraction ([1]; 1 nM) was 1.09 ± 0.057, the surviving fraction ([1]; 5 nM) was 1.08 ± 0.029 and the surviving fraction ([1]; 10 nM) was 1.08 ± 0.025. For the same test system, the surviving fraction ([1]; 50 nM) was 1.1 ± 0.058, the surviving fraction ([1]; 100 nM) was 1.09 ± 0.061 and the surviving fraction ([1]; 500 nM) was 1.03 ± 0.048. It also gave a surviving fraction ([1]; 1000 nM) of 1.02 ± 0.05.

For VCAP PROSTATE, the surviving fraction (MK-1775; 0.5 nM) was 1.14 ± 0.079, the surviving fraction (MK-1775; 1 nM) was 1.14 ± 0.19 and the surviving fraction (MK-1775; 5 nM) was 1.09 ± 0.042. The surviving fraction (MK-1775; 10 nM) was 1.08 ± 0.08, the surviving fraction (MK-1775; 50 nM) was 1.04 ± 0.12 and the surviving fraction (MK-1775; 100 nM) was 0.52 ± 0.11. The surviving fraction (MK-1775; 500 nM) was 0.0963 ± 0.019, the surviving fraction (MK-1775; 1000 nM) was 0.121 ± 0.019 and the surviving fraction ([1]; 0.5 nM) was 1.01 ± 0.035. The surviving fraction ([1]; 1 nM) was 1.08 ± 0.066, the surviving fraction ([1]; 5 nM) was 1.11 ± 0.14 and the surviving fraction ([1]; 10 nM) was 1.18 ± 0.15. For the same test system, the surviving fraction ([1]; 50 nM) was 1.19 ± 0.094, the surviving fraction ([1]; 100 nM) was 1.14 ± 0.11 and the surviving fraction ([1]; 500 nM) was 0.922 ± 0.057. For the same test system, the surviving fraction ([1]; 1000 nM) was 0.967 ± 0.079.

For VP229 BREAST, the surviving fraction (MK-1775; 0.5 nM) was 1.13 ± 0.14, the surviving fraction (MK-1775; 1 nM) was 1.01 ± 0.044 and the surviving fraction (MK-1775; 5 nM) was 1.01 ± 0.056. For the same test system, the surviving fraction (MK-1775; 10 nM) was 1.07 ± 0.063, the surviving fraction (MK-1775; 50 nM) was 1.02 ± 0.034 and the surviving fraction (MK-1775; 100 nM) was 0.754 ± 0.093. For the same test system, the surviving fraction (MK-1775; 500 nM) was 0.41 ± 0.056, the surviving fraction (MK-1775; 1000 nM) was 0.261 ± 0.013 and the surviving fraction ([1]; 0.5 nM) was 1.03 ± 0.15. The surviving fraction ([1]; 1 nM) was 1.07 ± 0.05, the surviving fraction ([1]; 5 nM) was 1.09 ± 0.14 and the surviving fraction ([1]; 10 nM) was 1.06 ± 0.07. The surviving fraction ([1]; 50 nM) was 0.9067 ± 0.0046, the surviving fraction ([1]; 100 nM) was 0.916 ± 0.14 and the surviving fraction ([1]; 500 nM) was 1.11 ± 0.062. For the same test system, the surviving fraction ([1]; 1000 nM) was 0.897 ± 0.075.

YAMATO SYNOVIAL was tested, and the surviving fraction (MK-1775; 0.5 nM) was 1.31 ± 0.14, the surviving fraction (MK-1775; 1 nM) was 1.29 ± 0.064 and the surviving fraction (MK-1775; 5 nM) was 1.43 ± 0.074. It also gave a surviving fraction (MK-1775; 10 nM) of 1.2 ± 0.093, a surviving fraction (MK-1775; 50 nM) of 1.27 ± 0.12 and a surviving fraction (MK-1775; 100 nM) of 0.972 ± 0.036. It also gave a surviving fraction (MK-1775; 500 nM) of 0.463 ± 0.031, a surviving fraction (MK-1775; 1000 nM) of 0.424 ± 0.018 and a surviving fraction ([1]; 0.5 nM) of 1.41 ± 0.1. It also gave a surviving fraction ([1]; 1 nM) of 1.44 ± 0.13, a surviving fraction ([1]; 5 nM) of 1.38 ± 0.1 and a surviving fraction ([1]; 10 nM) of 1.46 ± 0.03. It also gave a surviving fraction ([1]; 50 nM) of 0.925 ± 0.031, a surviving fraction ([1]; 100 nM) of 0.965 ± 0.046 and a surviving fraction ([1]; 500 nM) of 0.884 ± 0.14. For the same test system, the surviving fraction ([1]; 1000 nM) was 0.855 ± 0.045.

With ZR751 BREAST the surviving fraction (MK-1775; 0.5 nM) was 1.18 ± 0.14, the surviving fraction (MK-1775; 1 nM) was 1 ± 0.16 and the surviving fraction (MK-1775; 5 nM) was 0.999 ± 0.19. The surviving fraction (MK-1775; 10 nM) was 1.04 ± 0.15, the surviving fraction (MK-1775; 50 nM) was 1.01 ± 0.16 and the surviving fraction (MK-1775; 100 nM) was 1.04 ± 0.17. It also gave a surviving fraction (MK-1775; 500 nM) of 0.733 ± 0.1, a surviving fraction (MK-1775; 1000 nM) of 0.622 ± 0.086 and a surviving fraction ([1]; 0.5 nM) of 1.01 ± 0.1. For the same test system, the surviving fraction ([1]; 1 nM) was 1.08 ± 0.19, the surviving fraction ([1]; 5 nM) was 1.02 ± 0.21 and the surviving fraction ([1]; 10 nM) was 0.959 ± 0.13. It also gave a surviving fraction ([1]; 50 nM) of 0.951 ± 0.035, a surviving fraction ([1]; 100 nM) of 0.956 ± 0.076 and a surviving fraction ([1]; 500 nM) of 1.06 ± 0.24. The surviving fraction ([1]; 1000 nM) was 0.977 ± 0.071.
